# Inconclusive results are not listed. Active and inactive are the calls of the source.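 Rule for the calls: active = fitted activation curve crossing 40% at a concentration no higher than the sample's top valid tested dose; inconclusive = flat fitted curve at 30% to 70% activation, or poor curve fit; inactive = signal decrease, flat curve within 30%, or the rest.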
# Test system: NIH3T3-HGL HSF-1 response element luciferase, 48 h
# Experiment: HSF-1 reporter activators over prolonged exposure, confirmation, cell-based, mouse, luciferase, cherry-pick, dose (AID 602296);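 note: test compounds applied by themselves with no MG132 co-treatment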
row,Structure (SMILES),AC40
1,Cc1cc(C)n2nc(N)c(N=Nc3cccc(Cl)c3)c2n1,> 26 µM (inactive)
2,C=CCn1c(=O)c2ccccc2n2c(SCC(=O)Nc3sc(C)c(CC)c3C(=O)OCC)nnc12,> 26 µM (inactive)
3,COc1ccc(/C=C2/SC(=O)N(CCNC(=O)C3COc4ccccc4O3)C2=O)cc1 (configuration not stated),5.69 µM
4,Cc1[nH]nc2c1C(c1cc(Br)cs1)C(C#N)=C(N)O2 (configuration not stated),12 µM
5,NC(=O)c1cc2cc(Br)ccc2oc1=NCc1ccccc1,> 26 µM (inactive)
6,CCCN1C(=O)c2ccccc2NC1c1ccc(Cl)c(Cl)c1 (configuration not stated),> 26 µM (inactive)
7,CCC(Sc1nc2cc3c(cc2c(=O)n1Cc1ccco1)OCO3)C(=O)NCCOC (configuration not stated),> 26 µM (inactive)
8,Cc1ccc(-n2cc(CNCCN3CCOC3=O)c(-c3cccc(C)c3)n2)cc1,17.4 µM
9,Cc1ccc(CNC(=O)CSc2ccsc2[N+](=O)[O-])cc1,0.83 µM
10,CCOC(=O)Cn1nnc(-c2cccc(OC)c2)n1,12.8 µM
11,CC(C)(C)NC(=O)c1cccc(NC(=O)CSc2ccc(Cl)cc2)c1,> 26 µM (inactive)
12,O=C(CN1c2ccccc2S(=O)(=O)c2ccccc21)NCc1ccc(F)cc1,> 26 µM (inactive)
13,Cc1cccc(N2CCN(C(=O)CSCc3c(C)noc3C)CC2)c1C,20.1 µM
14,CSc1ccc(/C=N\Nc2nncn2N)cc1,> 26 µM (inactive)
15,OC(CNCc1cccc(Cl)c1)c1ccccc1 (configuration not stated),24.8 µM
16,CN(NC1OC(=O)c2ccccc21)c1ncc(Cl)cc1C(F)(F)F (configuration not stated),> 26 µM (inactive)
17,CCOc1ccccc1-c1noc(CCCC(=O)NC2CCCCC2)n1,> 26 µM (inactive)
18,Cc1nnc(Sc2nc3c(c(=O)n(C)c(=O)n3C)n2Cc2ccccc2Cl)s1,> 26 µM (inactive)
19,CCOc1ccc(CN(C)C(=O)CNC(=O)c2ccc3ccccc3c2)cc1OC,> 26 µM (inactive)
20,CC(=O)c1ccc(NC(=S)N2C(C)CCCC2C)cc1 (configuration not stated),20.8 µM
21,O=C(NCc1cccc(F)c1)c1noc2c1CCCC2,6.03 µM
22,COc1ccc(CCNc2oc(-c3ccccc3OC)nc2C#N)cc1,> 26 µM (inactive)

row,Structure (SMILES),AC40
1,CC1CCN(c2ccc(C=O)o2)CC1,> 26 µM (inactive)
2,CCOC(=O)c1c(C)n(-c2ccc(C)cc2)c2c(CC(C)=O)c(Br)c(OC)c(O)c12,> 26 µM (inactive)
3,Cc1cc(-c2nc3ncccc3o2)ccc1NC(=S)NC(=O)C(C)C,7.32 µM
4,CCN(CC)C(=O)c1ccc(C)c(Br)c1,> 26 µM (inactive)
5,O=C(CCC1CCCN(C(=O)c2ccc3cc[nH]c3c2)C1)NCc1ccc(F)c(F)c1 (configuration not stated),14.8 µM
6,COc1cccc(Sc2ccccc2/C=N/NC(N)=O)c1,> 26 µM (inactive)
7,COc1ccccc1C(=O)CSc1nnc(-c2ccco2)o1,11.7 µM
8,O=C(NCc1ccc(N2CCCC2=O)cc1)Nc1ccccc1,> 26 µM (inactive)
9,COc1ccc2cc(/C=C/C(=O)N3CCN(CC(=O)N4CCCCCC4)CC3)ccc2c1,12.6 µM
10,NC(=O)CCN1CCN(CCOC2Cc3cc(Cl)ccc3Sc3ccccc32)CC1 (configuration not stated),> 26 µM (inactive)
11,O=C(NCC1CCCO1)c1nn2c(C(F)(F)F)cc(-c3cc(Br)cs3)nc2c1Br (configuration not stated),> 26 µM (inactive)
12,CCOc1ccc(-n2cc(C(=O)N3CCC(C)CC3)c3cc(OC)c(OC)cc3c2=O)cc1,25 µM
13,COC(=O)C1NN=C(C(=O)c2ccc(Cl)cc2)C1c1ccc(OC)cc1 (configuration not stated),> 26 µM (inactive)
14,C/C(=C\C(=O)Nc1cscc1C)C(=O)O,> 26 µM (inactive)
15,CSc1ccc(Cl)c(C(=O)OCC(=O)N(C)CCC#N)c1,> 26 µM (inactive)
16,NC1=NC(=O)/C(=C/c2cn(Cc3ccccc3)c3ccccc23)S1,9.09 µM
17,Cc1ccccc1/[N+]([O-])=C/c1cccs1,> 26 µM (inactive)
18,COc1cccc(CNC(=O)Cn2nc(C)c([N+](=O)[O-])c2C)c1,> 26 µM (inactive)
19,CCN(CCNC(=O)CN1CCN(Cc2ccc(Cl)cc2)C1=O)c1ccccc1,20.9 µM
20,Cc1nc(/C(N)=N/OC(=O)Cc2ccccc2)no1,22.2 µM
21,COc1cccc(NC(=S)NC(=O)c2c(Cl)c(C)nn2C)c1,2.51 µM
22,COc1ccc(NC(=O)NNC(=O)c2cc3occc3n2C)c(OC)c1,> 26 µM (inactive)

row,Structure (SMILES),AC40
1,Cc1ccc(NC2=NC3(CCCC3)N=C(N)N2)c(C)c1,> 26 µM (inactive)
2,Cc1cccc(N2C(=O)C(O)=C(C(=O)c3cccs3)C2c2ccc(C(C)C)cc2)n1 (configuration not stated),9.04 µM
3,CC1=CC(=O)C=C(C)C1=NOC(=O)/C=C\c1ccccc1,> 26 µM (inactive)
4,COC(=O)C(C)Sc1nc2c(c(=O)n(C)c(=O)n2C)n1CCC(C)C (configuration not stated),> 26 µM (inactive)
5,Cc1ccc(-c2c3c(=O)n(C)c(=O)n(C)c3cn2-n2cnnc2)cc1,15.1 µM
6,CCSc1nnc(NC(=O)c2cccnc2Cl)s1,6.92 µM
7,Cc1cc(C)cc(NC(=O)CN(C)S(=O)(=O)c2cnc[nH]2)c1,> 26 µM (inactive)
8,O=C(CN1C(=O)/C(=C\c2cccc(Cl)c2)Sc2ccccc21)NCCCN1CCOCC1,> 12 µM (inactive)
9,O=C(Nc1ccc(Br)cn1)c1ccc([N+](=O)[O-])o1,> 26 µM (inactive)
10,Cc1cccc(N=Nc2c(C)c(C#N)c(O)[nH]c2=O)c1,> 26 µM (inactive)
11,O=C(NC(=S)Nc1ccccc1C(F)(F)F)c1ccccc1F,19.3 µM
12,N#C/C(=C\c1ccc(OCc2ccc(Cl)cc2)cc1)C(=O)Nc1cccc(C(=O)O)c1,2.68 µM
13,COC(=O)c1ccc(N(CC(=O)NC2CCCCC2)C(=O)CNC(=O)c2ccco2)cc1,> 26 µM (inactive)
14,CCOC(=O)c1nnsc1Nc1ccc(C)c(C)c1,5.31 µM
15,Cc1ccc(S(=O)(=O)CCN2CCN(c3ccccc3)CC2)cc1,> 26 µM (inactive)
16,CCCN(CC(=O)Nc1ccc(Cl)cc1Cl)C(=O)/C=C/c1ccco1,13 µM
17,O=[N+]([O-])c1ccc(Sc2ccccc2)nc1,> 26 µM (inactive)
18,COc1cc2nc(CSc3nc(-c4ccc(F)cc4)cs3)[nH]c(=O)c2cc1OC,> 26 µM (inactive)
19,CC(=O)Nc1nnc(SCC(=O)c2ccc(F)cc2)s1,17.4 µM
20,Cc1ccc(CSc2nc3ccccc3c(=O)n2CCCC(=O)NCc2ccco2)cc1,> 26 µM (inactive)
21,CC(C)(CNC(=O)/C=C/c1ccc(F)cc1)CNC(=O)/C=C/c1ccc(F)cc1,> 26 µM (inactive)
22,COc1ccc(/C=C(\NC(=O)c2ccccc2)C(=O)N/N=C/c2sccc2C)cc1,> 26 µM (inactive)

row,Structure (SMILES),AC40
1,CC(=O)Oc1ccc(Cn2cnc3cc4ccccc4cc32)cc1,14.7 µM
2,CCOc1ccccc1CNCCN1CCOCC1,> 26 µM (inactive)
3,Cc1ccccc1OCCCC(=O)Nc1ccccc1C(F)(F)F,> 26 µM (inactive)
4,CC(OC(=O)/C=C/c1ccc2ccccc2n1)C(=O)NCc1ccccc1 (configuration not stated),25.9 µM
5,COCCCN(CC(=O)O)S(=O)(=O)c1cccc(Cl)c1,> 26 µM (inactive)
6,CN(C)c1nc(N)nc(CSc2nnnn2-c2ccc(F)cc2)n1,> 26 µM (inactive)
7,CCS(=O)(=O)C(=C1NCCO1)S(=O)(=O)CC,> 26 µM (inactive)
8,Cc1cc2oc3c(c(=O)c2cc1C)C(c1ccc(C(C)C)cc1)N(CCCN1CCOCC1)C3=O (configuration not stated),> 26 µM (inactive)
9,CCOC(=O)C(=O)/C(C#N)=C/Nc1ccccc1,> 26 µM (inactive)
10,CCCCc1c(O)nc(SCC(=O)N2CCOCC2)n(-c2ccc(OC)cc2)c1=O,> 26 µM (inactive)
11,O=C(O)C1CCCCC1C(=O)Nc1ccc2c(c1)CCC2 (configuration not stated),5.08 µM
12,O=c1[nH][nH]c(-c2ccccc2O)c1C(C[N+](=O)[O-])c1ccccc1 (configuration not stated),16.9 µM
13,O=C(c1ccc[nH]c1=S)N1CCN(S(=O)(=O)c2ccc(Br)cc2Cl)CC1,> 26 µM (inactive)
14,Cc1ncc([N+](=O)[O-])n1CCOC(=O)c1cc(Cl)cc(Cl)c1N,> 26 µM (inactive)
15,O=C(CCS(=O)(=O)c1ccccc1)Nc1ccccn1,> 26 µM (inactive)
16,O=C(CSc1nc2nccnc2c(=O)n1Cc1cccs1)Nc1ccccc1F,9.52 µM
17,Cc1csc2nc(CCNS(=O)(=O)c3cccs3)cn12,2.76 µM
18,O=c1[nH]c2ccc(S(=O)(=O)Nc3ccc(-c4nnc5n4CCCCC5)cc3)cc2o1,> 26 µM (inactive)
19,O=C1c2cccc3cccc(c23)C(=O)N1OS(=O)(=O)c1ccccc1,16 µM
20,C/C(Cn1cnc([N+](=O)[O-])n1)=N\NC(=O)c1ccccc1F,2.7 µM
21,CCCc1cc(=O)[nH]c(SCC(=O)Nc2ccc(C)cc2)n1,> 26 µM (inactive)
22,CC1(C)CC(=O)C2=C(C1)Nc1cc3c(cc1C2c1ccc2c(c1)OCO2)OCO3 (configuration not stated),7.45 µM

row,Structure (SMILES),AC40
1,S=c1[nH]cc(Cc2ccccc2)s1,23.4 µM
2,COC(=O)CC/C(O)=C1/C(=N)CC(C)(C)CC1=O,> 12 µM (inactive)
3,NC(N)=NS(=O)(=O)c1ccc(NC(=S)NC(=O)c2ccc(Br)cc2)cc1,17.5 µM
4,O=[N+]([O-])c1ccc(-c2csc(Nc3ccccc3)[n+]2Cc2ccccc2)cc1,10.9 µM
5,O=C(CSc1nnc(-c2cccs2)o1)N1CCCc2ccccc21,> 26 µM (inactive)
6,O=C1NC(=O)[C@]2(Cc3ccccc3N3CCN(c4ccccc4)CC32)C(=O)N1Cc1ccccc1 (some centres not stated),2.51 µM
7,C=CCn1c(SCC(=O)Nc2cc(NC(C)=O)ccc2OC)nnc1-c1cccnc1,> 26 µM (inactive)
8,COc1ccccc1CN1CC(C(=O)NCCc2ncccc2C)CCC1=O (configuration not stated),24.8 µM
9,CC(C)(CN)CC(=O)O,> 26 µM (inactive)
10,O=C1C2CC=CCC2C(=O)N1c1ccc(NCCc2ccccc2)c([N+](=O)[O-])c1 (configuration not stated),3.31 µM
11,Cn1c(CN2CCN(C(=O)c3ccc(F)cc3)CC2)nc2cc([N+](=O)[O-])ccc21,> 26 µM (inactive)
12,COCCNC(=S)N/N=C/c1ccc(N2CCOCC2)cc1,> 26 µM (inactive)
13,CN1C(=O)C2C(c3ccc(N(C)C)cc3)=NN(Cc3ccccc3)C2C1=O (configuration not stated),> 26 µM (inactive)
14,Cc1ccc(CN(C)C(=O)C2CCC(=O)N(CCc3ccccc3)C2)o1 (configuration not stated),9.82 µM
15,CCOC(=O)c1sc2nc(C)nc(SCC(=O)NC3CCS(=O)(=O)C3)c2c1C (configuration not stated),> 26 µM (inactive)
16,CC(C)=NN1C(=O)c2ccccc2NC1(C)C,> 26 µM (inactive)
17,COc1ccccc1/C=C1/SC(=S)N(C(C)C(=O)NC2C=CS(=O)(=O)C2)C1=O (configuration not stated),> 26 µM (inactive)
18,COCCCNC(=O)c1ccc(NS(C)(=O)=O)cc1,> 26 µM (inactive)
19,Cc1ccc2cccnc2c1NC(=S)NC(=O)c1ccccc1,> 26 µM (inactive)

# From PubChem BioAssay AID602296 (Broad Institute, 2012)
